Legend:
[1] = ABTS cation radical scavenging assay; settings: 100 µM, 2 min in the dark
Text: In addition, it has been reported that antioxidants that scavenge radicals may inhibit excess melanogenesis, because melanogenesis can be triggered by various radicals. Therefore, the 2,2′-azino-bis(3-ethylbenzothiazoline-6-sulfonic acid) (ABTS) cation radical scavenging abilities of 14 (Z)-BPT derivatives were studied using Trolox as a positive control. The ABTS cation radical is formed by transferring one electron of ABTS to K2S2O8 (potassium persulfate). To obtain an ABTS cation radical solution, a 7.4 mM ABTS solution was mixed with 2.6 mM potassium persulfate and kept in the dark at room temperature for 24 h. After adjusting the absorbance of the ABTS cation radical solution to 0.700 ± 0.03 at 732 nm, the ABTS cation radical solution was mixed with test samples (1–14 and Trolox) to a final concentration of 100 µM and kept for 2 min in the dark. The radical scavenging effects were assessed based on the absorbance measured at 732 nm.
The antioxidant properties of (Z)-BPT derivatives 1–14 were assessed using the ABTS cation-free radical scavenging assay, as previously described. […] Then, methanol was used to dilute the ABTS cation-free radical solution to an absorbance of 0.70 ± 0.02 at 734 nm. […] The absorbance of each well was measured at 734 nm using a VersaMax ™ microplate reader (Molecular Devices, Sunnyvale, CA, USA). […]

[2] = In vitro ROS scavenging assay (SIN-1, esterase, DCFH-DA); settings: 40 µM, SIN-1-generated ROS
Method: DCFH-DA, esterase, and SIN-1 were used to measure the scavenging activity of in vitro ROS generated by SIN-1. DCFH-DA reacts with esterase to generate DCFH, which in turn, reacts with the in vitro ROS generated by SIN-1 to produce DCF. To evaluate the in vitro ROS scavenging effects of the (Z)-BPT derivatives, a concentration of 40 µM was used. […] Three derivatives, 2, 3, and 14, exerted strong scavenging abilities against both intracellular ROS and in vitro ROS.
The ROS scavenging abilities of (Z)-BPT derivatives 1–14 and Trolox were assessed in accordance with methods previously reported by Lebel and Bondy. Briefly, 50 mM phosphate buffer (pH 7.4) was dissolved with esterase (6 units/mL) and 1.25 mM DCFH-DA (2′,7′-dichlorodihydrofluorescein diacetate) from Molecular Probes (Eugene, OR, USA), maintained at 37 °C for 30 min, and kept on ice in the dark until use. […] Using a microplate reader (Berthold Advances GmbH & Co., Bad Wildbad, Germany), the fluorescence intensities of 2′,7′-dichlorofluorescein (DCF or oxidized DCFH) were examined at excitation and emission wavelengths of 485 nm and 535 nm, respectively. […]
Figure 11 The scavenging effects of (Z)-BPT derivatives 1–14 on (A) intracellular ROS and (B) in vitro ROS. ROS levels were assessed using an assay with SIN-1 (an ROS generator) and DCFH-DA (an ROS-sensitive fluorescence probe). […]

## Cc1c(C)c2c(c(C)c1O)CCC(C)(C(=O)O)O2 (centres unmarked) [Trolox]
[1]
  ABTS cation radical scavenging (inhibition): 81%
[2]
  in vitro ROS scavenging activity: significantly decreased the enhanced ROS levels

— PMC10144242, “Design, Synthesis, In Vitro, and In Silico Insights of 5-(Substituted benzylidene)-2-phenylthiazol-4(5H)-one Derivatives: A Novel Class of Anti-Melanogenic Compounds” (Molecules, 2023)
